This experiment relates to Torpedo californica electric organ synpatic vesicles. As to the kind of experiment: Inhibition of ATP-dependent uptake of radioactive ACh by purified Torpedo electric organ synaptic vesicles in vitro. The format is biochemical. The settings on record: for IC50: purified Torpedo vesicles, room temperature, approximately 30 minutes, neutral pH, approximately 5 mM ATP, 50 μM radioactive ACh, read-out: IC50 (inhibition of vesicular ACh uptake). On the procedure: For example, purified Torpedo californica electric organ synpatic vesicles uptake ACh in vitro in the presence of ATP. Such vesicles are incubated at room temperature for approximately 30 minutes in isosmotic buffer at neutral PH, the buffer containing approximately 5 mM ATP and 50 μM radioactive ACh, and the radioactivity accumulated by the washed vesicles is then measured by liquid scintillation spectroscopy. By varying the concentration of the compound to be tested to determine its inhibitory effect on ACh uptake, a dose response curve can be deduced including the IC50.

As a reminder, the IC50 is the concentration that inhibits the measured activity by half. With `OC1CCCCC1N1CCC(c2ccccc2)CC1` (stereo not shown) [AH 5183, 2-(4-Phenylpiperidino)-cyclohexanol], the IC50 is 40 µM. Besides, the “concentration needed relative to DPPN for comparable blockade of vesicular uptake of ACh” value (relative to DPPN) is given as “at least four”.

Regarding `O[C@@H]1C[C@H]2CCCC[C@@H]2C[C@H]1N1CCC(c2ccccc2)CC1` (relative stereo) [DPPN, (2α, 3β, 4aβ, 8aα)-decahydro-3-(4-phenyl-1-piperidinyl)-2-naphthalenol], the IC50 was found to be 10 µM. Besides, the “times more effective than AH 5183 in preventing ACh uptake by the vesicles” value (relative to AH 5183) is listed as “approximately four”.

Values taken from patent US4552965A, “2α, 3β, 4aβ, 8aα-Decahydro-3-(4-phenyl-1-piperidinyl)-2-naphthalenol” (University of California, priority 1984, dated 1985).
